Our source for the Tebuconazole concentration values is US9426983B2, “Agrochemical composition and method for preparing the same” (priority 2007, dated 2016).

Structures are written as SMILES.

The nature of this series: Tebuconazole concentration in the sprayed composition, determined by chromatograph. Type of series: physicochemical. Here is the method:
After the storage period of two weeks, each of the concentrates A to E was diluted with water. 10 liters of spraying compositions were prepared using hard water (CIPAC standard water D, 342 ppm) in 3 different concentrations: 0.5, 1, and 2 times the recommended spraying concentration for each concentrate.
Each diluted composition was sprayed using a personal spraying machine and using one spray nozzle equipped with 200 mesh screen. A sample of each composition was collected leaving the spraying machine after spraying.
Further, every sample of the spray compositon was analyzed in a chromatograph to determine the concentration of tebuconazole in the composition as it would be reaching the locus to be treated. […]

For the compound `CC(C)(C)C(O)(CCc1ccc(Cl)cc1)Cn1cncn1` (stereo not drawn) [Tebuconazole], the Tebuconazole concentration is, setting by setting: (0.5% dilution, 0 hr) 2064 ppm; (0.5% dilution, 1 hr) 2039 ppm; (0.5% dilution, 2 hr) 2009 ppm; (0.5% dilution, 3 hr) 1969 ppm; (0.5% dilution, 4 hr) 1924 ppm; (1.0% dilution, 0 hr) 4150 ppm. In addition, the Tebuconazole concentration by setting is: (1.0% dilution, 1 hr) 4123 ppm; (1.0% dilution, 2 hr) 4091 ppm; (1.0% dilution, 3 hr) 4052 ppm; (1.0% dilution, 4 hr) 4007 ppm; (2.0% dilution, 0 hr) 8300 ppm; (2.0% dilution, 1 hr) 8272 ppm. The Tebuconazole concentration reads like this: (2.0% dilution, 2 hr) 8237 ppm; (2.0% dilution, 3 hr) 8197 ppm; (2.0% dilution, 4 hr) 8152 ppm.
